Experimental data from patent publication US9150568B2, “Compositions and methods for modulating FXR” (NOVARTIS AG, priority 2010, dated 2015).

Target: T1, human Farnesoid X Receptor (FXR) ligand binding domain (GST-FXR LBD) (Homo sapiens, UniProt Q96RI1)
T1 construct: purchased Invitrogen
T1 sequence (Q96RI1 193-472 isoform Q96RI1-2): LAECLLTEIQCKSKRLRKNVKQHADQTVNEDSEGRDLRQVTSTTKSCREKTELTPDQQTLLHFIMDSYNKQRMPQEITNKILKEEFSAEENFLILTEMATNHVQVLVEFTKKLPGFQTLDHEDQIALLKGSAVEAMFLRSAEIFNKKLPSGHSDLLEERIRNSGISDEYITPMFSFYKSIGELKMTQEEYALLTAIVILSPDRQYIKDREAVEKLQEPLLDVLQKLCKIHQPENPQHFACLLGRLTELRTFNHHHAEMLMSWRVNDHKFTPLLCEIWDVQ
Assay: Human GST-FXR LBD co-activator interaction assay (HTRF)
Type: biochemical
Conditions: GST-FXR LBD / biotin-SRC-1 peptide FRET; response relative to GW4064; read-out: FXR Co-activator interaction assay (EC50)
Excerpt: Human GST-FXR LBD Co-activator interaction Assay. The FXR HTRF assay is a biochemical assay measuring the interaction between FXR and a coactivator protein (SRC1). The ligand-induced interaction with a coactivator protein is a critical step in transcriptional activation by FXR. Thus, this is an assay designed to measure FXR agonist activity of compounds.
The ligand-dependent interaction between GST-FXR LBD and a peptide derived from Steroid Receptor Coactivator-1 (SRC-1) was monitored by Fluorescence Resonance Energy Transfer (FRET). […] Test compounds (in DMSO solution) and detection reagents (anti-GST-Cryptate labeled antibody and Streptavidin-XL665 conjugate; CisBio) were added in assay buffer containing 50 mM KF.
A negative control (without Streptavidin-XL665) was run with each assay and represented the background fluorescence. A reference FXR agonist, GW4064, was included in each experiment as positive control. The efficacy of each test compound was compared to that of GW4064. At each concentration, the relative activity of the test compound was expressed as Response %=(Rsample−RDMSO)/(Rpositive−RDMSO), where Rsample is the HTRF response (expressed in Delta F %) for the test compound, Rpositive is the maximal response for GW4064 at saturating concentrations, and RDMSO is the response for DMSO control. The EC50 values were calculated using GraphPad Prism (GraphPad Software) using non-linear regression curve fit (log(agonist) vs. response—variable slope (four parameters)).

| SMILES | EC50 [nM] |
| --- | --- |
| O=C(O)c1ccnc(N2C3CC[C@H]2CC(OCc2c(-c4ccccc4C(F)(F)F)noc2C2CC2)C3)c1 (stereo partly shown) [Example 20B, 2-(3-((5-cyclopropyl-3-(2-(trifluoromethyl)phenyl)isoxazol-4-yl)methox)-8-azabicyclo[3.2.1]octan-8-yl)isonicotinic acid] | 330 |
| COC(=O)c1cc(C)nc(N2C3CC[C@H]2CC(OCc2c(-c4ccccc4C(F)(F)F)noc2C2CC2)C3)c1 (stereo partly shown) [Example 21-1A] | 300 |
| Cc1cc(C(=O)O)cc(N2C3CC[C@H]2CC(OCc2c(-c4ccccc4C(F)(F)F)noc2C2CC2)C3)n1 (stereo partly shown) [Example 21-1B] | 260 |
| COC(=O)c1cnc(N2C3CC[C@H]2CC(OCc2c(-c4ccccc4C(F)(F)F)noc2C2CC2)C3)nc1 (stereo partly shown) [Example 21-2A] | 120 |
| O=C(O)c1cnc(N2C3CC[C@H]2CC(OCc2c(-c4ccccc4C(F)(F)F)noc2C2CC2)C3)nc1 (stereo partly shown) [Example 21-2B] | 10 |
| COC(=O)c1cnc(N2C3CC[C@H]2CC(OCc2c(-c4ccccc4C(F)(F)F)noc2C2CC2)C3)cn1 (stereo partly shown) [Example 21-3A] | 180 |
| O=C(O)c1cnc(N2C3CC[C@H]2CC(OCc2c(-c4ccccc4C(F)(F)F)noc2C2CC2)C3)cn1 (stereo partly shown) [Example 21-3B] | 9 |
| COC(=O)c1cnc(N2C3CC[C@H]2CC(OCc2c(-c4ccccc4C(F)(F)F)noc2C2CC2)C3)cc1C(F)(F)F (stereo partly shown) [Example 21-4A] | 250 |
| O=C(O)c1cnc(N2C3CC[C@H]2CC(OCc2c(-c4ccccc4C(F)(F)F)noc2C2CC2)C3)cc1C(F)(F)F (stereo partly shown) [Example 21-4B] | 20 |
| COC(=O)c1ccnc(N2C3CC[C@H]2CC(OCc2c(-c4ccccc4C(F)(F)F)noc2C2CC2)C3)n1 (stereo partly shown) [Example 21-5A] | 110 |
| O=C(O)c1ccnc(N2C3CC[C@H]2CC(OCc2c(-c4ccccc4C(F)(F)F)noc2C2CC2)C3)n1 (stereo partly shown) [Example 21-5B] | 10 |
| COC(=O)c1cccc(N2C3CC[C@H]2CC(OCc2c(-c4ccccc4C(F)(F)F)noc2C2CC2)C3)n1 (stereo partly shown) [Example 21-6A] | 60 |
| O=C(O)c1cccc(N2C3CC[C@H]2CC(OCc2c(-c4ccccc4C(F)(F)F)noc2C2CC2)C3)n1 (stereo partly shown) [Example 21-6B] | 16 |
| COC(=O)c1cnc(N2C3CC[C@H]2CC(OCc2c(-c4ccccc4OC(F)F)noc2C2CC2)C3)cc1C(F)(F)F (stereo partly shown) [Example 22-1A] | 530 |
| O=C(O)c1cnc(N2C3CC[C@H]2CC(OCc2c(-c4ccccc4OC(F)F)noc2C2CC2)C3)cc1C(F)(F)F (stereo partly shown) [Example 22-1B] | 20 |
| COC(=O)c1ccnc(N2C3CC[C@H]2CC(OCc2c(-c4ccccc4OC(F)F)noc2C2CC2)C3)n1 (stereo partly shown) [Example 22-2A] | 60 |
| O=C(O)c1ccnc(N2C3CC[C@H]2CC(OCc2c(-c4ccccc4OC(F)F)noc2C2CC2)C3)n1 (stereo partly shown) [Example 22-2B] | 9 |
| COC(=O)c1cccc(N2C3CC[C@H]2CC(OCc2c(-c4ccccc4OC(F)F)noc2C2CC2)C3)n1 (stereo partly shown) [Example 22-3] | 10 |
| COC(=O)c1cnc(N2C3CC[C@H]2CC(OCc2c(-c4ccccc4OC(F)F)noc2C2CC2)C3)cc1C (stereo partly shown) [Example 22-4A] | 20 |
| Cc1cc(N2C3CC[C@H]2CC(OCc2c(-c4ccccc4OC(F)F)noc2C2CC2)C3)ncc1C(=O)O (stereo partly shown) [Example 22-4B] | 9 |
| COC(=O)c1cc(C)nc(N2C3CC[C@H]2CC(OCc2c(-c4ccccc4OC(F)F)noc2C2CC2)C3)n1 (stereo partly shown) [Example 22-5] | 27 |
| COC(=O)c1cnc(N2C3CC[C@H]2CC(OCc2c(-c4ccccc4OC(F)F)noc2C2CC2)C3)cc1Cl (stereo partly shown) [Example 22-6A] | 56 |
| COC(=O)c1cnc(N2C3CC[C@H]2CC(OCc2c(-c4ccccc4OC(F)F)noc2C2CC2)C3)c(C)c1 (stereo partly shown) [Example 22-7A] | 10 |
| Cc1cc(C(=O)O)cnc1N1C2CC[C@H]1CC(OCc1c(-c3ccccc3OC(F)F)noc1C1CC1)C2 (stereo partly shown) [Example 22-7B] | 5 |
| Cc1cc(C(=O)O)nc(N2C3CC[C@H]2CC(OCc2c(-c4ccccc4OC(F)F)noc2C2CC2)C3)n1 (stereo partly shown) [Example 22-8] | 5 |
| COC(=O)c1ccc(N2C3CC[C@H]2CC(OCc2c(-c4ccccc4OC(F)F)noc2C2CC2)C3)nn1 (stereo partly shown) [Example 22-9A] | 1030 |
| O=C(O)c1ccc(N2C3CC[C@H]2CC(OCc2c(-c4ccccc4OC(F)F)noc2C2CC2)C3)nn1 (stereo partly shown) [Example 22-9B] | 17 |
| COC(=O)c1cnc(N2C3CC[C@H]2CC(OCc2c(-c4ccccc4OC(F)F)noc2C2CC2)C3)nc1 (stereo partly shown) [Example 22-10A] | 360 |

| SMILES | EC50 [nM] |
| --- | --- |
| O=C(O)c1cnc(N2C3CC[C@H]2CC(OCc2c(-c4ccccc4OC(F)F)noc2C2CC2)C3)nc1 (stereo partly shown) [Example 22-10B] | 8 |
| COC(=O)c1cnc(N2C3CC[C@H]2CC(OCc2c(-c4ccccc4OC(F)F)noc2C2CC2)C3)cn1 (stereo partly shown) [Example 22-11A] | 110 |
| O=C(O)c1cnc(N2C3CC[C@H]2CC(OCc2c(-c4ccccc4OC(F)F)noc2C2CC2)C3)cn1 (stereo partly shown) [Example 22-11B] | 10 |
| COC(=O)c1ccc(N2[C@@H]3CC[C@H]2C[C@@H](OCc2c(-c4c(F)cccc4F)noc2C2CC2)C3)nc1 [Example 22-13A] | 80 |
| O=C(O)c1ccc(N2[C@@H]3CC[C@H]2C[C@@H](OCc2c(-c4c(F)cccc4F)noc2C2CC2)C3)nc1 [Example 22-13B] | 9 |
| COC(=O)c1cnc(N2C3CC[C@H]2CC(OCc2c(-c4c(F)cccc4F)noc2C2CC2)C3)nc1 (stereo partly shown) [Example 22-14A] | 70 |
| O=C(O)c1cnc(N2C3CC[C@H]2CC(OCc2c(-c4c(F)cccc4F)noc2C2CC2)C3)nc1 (stereo partly shown) [Example 22-14B] | 13 |
| COC(=O)c1cnc(N2C3CC[C@H]2CC(OCc2c(-c4c(F)cccc4F)noc2C2CC2)C3)cn1 (stereo partly shown) [Example 22-15A] | 130 |
| O=C(O)c1cnc(N2[C@@H]3CC[C@H]2C[C@@H](OCc2c(-c4c(F)cccc4F)noc2C2CC2)C3)cn1 [Example 22-15B] | 28 |
| COC(=O)c1cnc(N2[C@@H]3CC[C@H]2C[C@@H](OCc2c(-c4c(F)cccc4F)noc2C2CC2)C3)cc1C(F)(F)F [Example 22-16A] | 160 |
| O=C(O)c1cnc(N2C3CC[C@H]2CC(OCc2c(-c4c(F)cccc4F)noc2C2CC2)C3)cc1C(F)(F)F (stereo partly shown) [Example 22-16B] | 10 |
| COC(=O)c1cnc(N2[C@@H]3CC[C@H]2C[C@@H](OCc2c(-c4c(F)cccc4F)noc2C2CC2)C3)c(C2CC2)c1 [Example 22-17A] | 65 |
| O=C(O)c1cnc(N2[C@@H]3CC[C@H]2C[C@@H](OCc2c(-c4c(F)cccc4F)noc2C2CC2)C3)c(C2CC2)c1 [Example 22-17B] | 3 |
| COC(=O)c1cc(C)nc(N2C3CC[C@H]2CC(OCc2c(-c4c(F)cccc4F)noc2C2CC2)C3)n1 (stereo partly shown) [Example 22-18A] | 43 |
| Cc1cc(C(=O)O)nc(N2C3CC[C@H]2CC(OCc2c(-c4c(F)cccc4F)noc2C2CC2)C3)n1 (stereo partly shown) [Example 22-18B] | 18 |
| COC(=O)c1cc(N2C3CC[C@H]2CC(OCc2c(-c4c(F)cccc4F)noc2C2CC2)C3)nc(Cl)n1 (stereo partly shown) [Example 22-19] | 57 |
| COC(=O)c1cc(Cl)nc(N2C3CC[C@H]2CC(OCc2c(-c4c(F)cccc4F)noc2C2CC2)C3)n1 (stereo partly shown) [Example 22-20] | 25 |
| COC(=O)c1cnc(N2C3CC[C@H]2CC(OCc2c(-c4c(F)cccc4F)noc2C2CC2)C3)c(Br)c1 (stereo partly shown) [Example 22-21] | 29 |
| COC(=O)c1cc(F)c(N2C3CC[C@H]2CC(OCc2c(-c4ccccc4OC(F)(F)F)noc2C2CC2)C3)c(F)c1 (stereo partly shown) [Example 24-1A] | 40 |
| O=C(O)c1cc(F)c(N2C3CC[C@H]2CC(OCc2c(-c4ccccc4OC(F)(F)F)noc2C2CC2)C3)c(F)c1 (stereo partly shown) [Example 24-1B] | 8 |
| COC(=O)c1cc(F)c(N2C3CC[C@H]2CC(OCc2c(-c4ccccc4OC(F)F)noc2C2CC2)C3)c(F)c1 (stereo partly shown) [Example 25-1A] | 28 |
| O=C(O)c1cc(F)c(N2C3CC[C@H]2CC(OCc2c(-c4ccccc4OC(F)F)noc2C2CC2)C3)c(F)c1 (stereo partly shown) [Example 25-1B] | 3 |
| COC(=O)c1cc(F)c(N2C3CC[C@H]2CC(OCc2c(-c4ccccc4C(F)(F)F)noc2C2CC2)C3)c(F)c1 (stereo partly shown) [Example 25-2A] | 420 |
| O=C(O)c1cc(F)c(N2C3CC[C@H]2CC(OCc2c(-c4ccccc4C(F)(F)F)noc2C2CC2)C3)c(F)c1 (stereo partly shown) [Example 25-2B] | 5 |
| COC(=O)c1ccc(N2C3CC[C@H]2CC(OCc2c(-c4c(F)cccc4F)noc2C2CC2)C3)c(F)c1 (stereo partly shown) [Example 25-3A] | 80 |
| O=C(O)c1ccc(N2C3CC[C@H]2CC(OCc2c(-c4c(F)cccc4F)noc2C2CC2)C3)c(F)c1 (stereo partly shown) [Example 25-3B] | 0.9 |
| O=C(O)c1cc(F)c(N2[C@@H]3CC[C@H]2C[C@@H](OCc2c(-c4c(F)cccc4F)noc2C2CC2)C3)c(F)c1 [Example 25-4B] | 2 |
